Assay results from US20060148712A1, “Monocyte chemoattractant activity of galectin-3” (priority 2000, published 2006).
Where two headings read alike, the source gives them in different places.

Tests used:
human monocytes = test: Measurement of Ca2+ influx in monocytes (Indo-1 AM); format: cell-based; conditions: for Induction of Ca2+ influx in human monocytes by chemokine: 100 ng/ml
Description: Intracellular concentrations of Ca^2+ were measured by using Indo-1 AM according to a previously described method (Lopez, et al., Cytometry 10:165-73 (1989)). Purified monocytes were resuspended in HBSS containing 1 mM Ca^2+, 1 mM Mg^2+, and 5% autologous serum, and incubated with […] Indo-1 AM for 45 min at 37° C. The cells were washed once, resuspended in the same buffer, and stimuli and inhibitors were added at the time points specified in the Figure Legends. Intracellular Ca^2+ concentration was measured by monitoring light emission at 405 and 485 nm to an excitation wavelength of 355 nm, using an AMINCO-Bowman series 2 luminescence spectrometer (Rochester, N.Y.).

[1] = system: human peripheral blood monocytes; test: Monocyte migration assay in vitro (96-well micro Boyden chamber); format: cell-based; conditions: for inhibition at 10000 µM: Homo sapiens, Monocyte, 10 mM lactose, read-out: Inhibition of galectin-3-induced monocyte migration
From the text: Human monocytes were purified from venous blood of normal volunteers essentially as described previously (Nakagawara, et al., J. Clin. Invest. 68:1243-53 (1981)). In brief, after erythrocytes were sedimented by addition of 6% dextran saline solution (I part to 5 parts heparinized blood), the leukocytes were collected, washed twice, and resuspended in Ca^2+ and Mg^2+-free HBSS containing 5% autologous serum. Mononuclear cells were acquired by centrifugation of the leukocyte suspension on Ficoll Paque at 1,500 rpm for 15 min. The cells were resuspended in RPMI 1640 containing 10% autologous serum and allowed to adhere to sterile tissue culture plates for 30 min in a humidified incubator at 5% CO2 and 37° C. After incubation, non-adherent cells were removed by washing the plates three times with PBS at 37° C. […] To detach and harvest the adhered monocytes, 1 mM EDTA-PBS containing 5% serum was added and the plates were incubated on ice for 30 min. The monocytes were washed twice with HBSS and resuspended in RPMI 1640 with 0.1% autologous serum for the migration assay. The viability of monocytes was determined by trypan blue exclusion and was more than 98%. In some experiments, monocytes were purified according to another method using a Percoll discontinuous gradient described previously (Chuluyan & Issekutz, J. Clin. Invest. 92:2768-77 (1993)).
(§1) Monocyte migration was examined by using 96-well micro Boyden chambers with 5 μm-pore size filters (Neuro Probe, Inc., Gaithersburg, Md.) as described previously (Falk, et al., J. Immunol. Meth. 33:239-47 (1980)), Chertov, et al., J. Biol. Chem. 271:2935-40 (1996)). Briefly, after the indicated concentrations of galectin-3 in RPMI 1640 were applied to the lower chambers, purified monocyte suspensions (2.5-5.0×10^4/well) were applied to the upper chambers. After incubation of the chambers for 1 h in a humidified incubator at 5% CO2 and 37° C., the filters were washed once with PBS and processed with Wright stain. The number of monocytes on the bottom side of the filters was counted in 5 to 10 high-power fields. Monocyte migration was calculated from the average numbers of the counted cells and expressed as % of input cells in a well.
In assays using inhibitory reagents, the purified monocytes were pretreated with or without the indicated concentrations of B2C10 (Liu, et al., Biochemistry 35:[…] (1996)) or anti-DNP IgG1 (Liu, et al., J. Immunol. 124:2728-31 (1980)) as an isotype-matched control mAb, galectin-3C, or PTX at 37° C. for 30 min. Then the cells were applied to the upper chambers in the presence of these inhibitors at the same concentrations used in the pretreatment. In the assays using lactose and sucrose, the sugars were added to the lower chambers at the initiation of the migration assay.

[2] = system: human alveolar macrophages; test: Migration of human alveolar macrophages in vitro; format: cell-based
From the text: (§2) Human macrophages were obtained by culturing peripheral blood monocytes in vitro for 7 days as previously described (Fantuzzi, et al., Blood 94:875-83 (1999)). Human alveolar macrophages were obtained from bronchoalveolar lavage (BAL) fluid according to a previously described protocol (Sugimoto et al, Am. Rev. Respir. Dis. 139:1329-35 (1989)). The purity of the macrophages was over 90% and the viability was over 99%.
as §1

[3] = system: cultured human peripheral blood macrophages; test: Migration of cultured human peripheral blood macrophages in vitro; format: cell-based; conditions: confirmed by applicant (FIG. 9)
From the text: as §2, §1

monocytes = format: cell-based, human; conditions: 1 μg/ml of PTX; data not shown
Description: The possibility that G-proteins might be involved in galectin-3-induced monocyte migration was tested using the inhibitor pertussis toxin (PTX), because it is well known that many chemoattractants, including all chemokines, utilize G-protein-coupled receptors to transduce signals into the cell (Baggiolini, Nature 392:565-68 (1998)).

`OC[C@H]1O[C@@H](O[C@H]2[C@H](O)[C@@H](O)C(O)O[C@@H]2CO)[C@H](O)[C@@H](O)[C@H]1O` (some centres unmarked) [lactose, reference compound] was tested, and the “Inhibition of MCP-1-induced Ca2+ influx” value (human monocytes; 5 mM lactose, 100 ng/ml MCP-1) was “not”, the “Inhibition of galectin-3-induced Ca2+ influx” value (human monocytes; 5 mM lactose, 1 μM galectin-3) was “complete inhibition” and the “Effect on monocyte migration induced by MCP-1” value ([1]; 5 mM and 10 mM lactose) was “did not affect”. The “Decrease of galectin-3-induced monocyte migration” value (“Decrease” below) ([1]; 5 mM lactose, 10 nM galectin-3, p<0.05, n=3) was 63.8%, the “Decrease” value ([1]; 5 mM lactose, 100 nM galectin-3, p<0.05, n=3) was 71.5% and the “Decrease” value ([1]; 5 mM lactose, 1 μM galectin-3, p<0.05, n=3) was 57.6%. The inhibition at 10000 µM ([1]; 10 nM galectin-3, p<0.05, n=3) was 78%, the inhibition at 10000 µM ([1]; 100 nM galectin-3, p<0.05, n=3) was 74.1% and the inhibition at 10000 µM ([1]; 1 μM galectin-3, p<0.05, n=3) was 71.1%.

For `OC[C@H]1O[C@@](CO)(O[C@H]2O[C@H](CO)[C@@H](O)[C@H](O)[C@H]2O)[C@@H](O)[C@@H]1O` [sucrose, reference compound], the “Inhibition of galectin-3-induced Ca2+ influx” value (human monocytes; 5 mM sucrose, 1 μM galectin-3) was “not” and the “Effect on galectin-3-induced monocyte migration” value ([1]; sucrose 5 mM or 10 mM, negative control sugar) was “no significant effect”.

For “MCP-1: human recombinant MCP-1, a strong chemoattractant for monocytes (Pepro Tech)”, the “Effect on alveolar macrophage migration” value ([2]; FIG. 10, exp. 1) was “no effect”, the “Effect on alveolar macrophage migration” value ([2]; FIG. 10, exp. 2) was “negligible effect” and the “Induction of Ca2+ influx in human monocytes by chemokine” value (human monocytes) was “induced a Ca^2+ influx”. For the same compound, the “Concentration that induced maximum monocyte migration” value ([1]; dose-response experiments, also printed as 11.6 nM) was 100 ng/mL and the “Response of cultured human macrophages to MCP-1” value [3] was “do not respond”.

SDF-1α was tested, and the “Induction of Ca2+ influx in human monocytes by chemokine” value (human monocytes) was “induced a Ca^2+ influx”.

In the case of “pertussis toxin [PTX, reference compound]”, the Viability of monocytes (monocytes) is reported as “did not decrease the viability”, the “Effect of PTX on MCP-1-induced Ca2+ influx” value (human monocytes; 1 μg/ml of PTX, 100 ng/ml MCP-1) is reported as “blocked” and the “Effect of PTX on galectin-3-induced Ca2+ influx” value (human monocytes; 1 μg/ml of PTX, 1 μM galectin-3) is reported as “blocked”. The “Inhibition of MCP-1-induced monocyte migration” value ([1]; 1 μg/ml of PTX, all MCP-1 concentrations examined) was “significantly inhibited”, the “Decrease” value ([1]; PTX, 1 μM galectin-3, p<0.01, n=5) was 91.2% and the “Inhibition of galectin-3-induced monocyte migration” value ([1]; PTX, 10 or 100 nM galectin-3, p=0.8501 and 0.3093, n=5) was “did not significantly inhibit”.
